Broadly, the melting point is the temperature of the solid-liquid transition.

Data set [1] concerns Botryotinia fuckeliana (Botrytis cinerea). Briefly: Botryotinia fuckeliana (Botrytis cinerea)/Liquid Culture (Gray Mould). It counts as cell-based. To be noted: 200 ppm, liquid culture, compared to untreated control, 3-4 days after application, read-out: control of Botryotinia fuckeliana.
For data set [2], the system named is Fusarium culmorum. Briefly: microbe, parasite or virus in culture. It counts as cell-based. Conditions: read-out: control of Fusarium culmorum.
Data set [3] concerns Glomerella lagenarium (Colletotrichum lagenarium). The data set can be described thus: Glomerella lagenarium (Colletotrichum lagenarium)/Liquid Culture (Anthracnose). Conditions: Colletotrichum orbiculare; 200 ppm; liquid culture, compared to untreated control, 3-4 days after application; read-out: control of Glomerella lagenarium. The class given is cell-based.
For data set [4], the system named is Monographella nivalis (Microdochium nivale). The data set can be described thus: Monographella nivalis (Microdochium nivale)/Liquid Culture (Foot Rot Cereals). Conditions: 200 ppm, liquid culture, compared to untreated control, 4-5 days after application, read-out: control of Monographella nivalis. The class given is cell-based.
Data set [5] has as its system Magnaporthe grisea (Pyricularia oryzae). Briefly: microbe, parasite or virus in culture. It counts as cell-based. Conditions: read-out: control of Magnaporthe grisea.
Data set [6] has as its system Sclerotinia sclerotiorum. Briefly: Sclerotinia sclerotiorum/Liquid Culture (Cottony Rot). To be noted: read-out: control of Sclerotinia sclerotiorum.
Method: Mycelia fragments of a newly grown liquid culture of the fungus are directly mixed into nutrient broth (Vogels broth). After placing a (DMSO) solution of test compound into a microtiter plate (96-well format) the nutrient broth containing the fungal material is added. The test plates are incubated at 24° C. and the inhibition of growth is determined photometrically 3-4 days after application.
For data set [7], the system named is Fusarium culmorum. The data set can be described thus: whole plant or invertebrate. To be noted: in Triticum aestivum, read-out: control of Fusarium culmorum. The class given is in vivo.

Where only a bound is given, the exact number is not on record here.

`C=C(C)CC(C)(Cc1cccc(F)c1)C(=O)Nc1cnc2c(F)cccc2c1` (stereo not drawn) [Compound E-11, 2-[(3-fluorophenyl)methyl]-N-(8-fluoro-3-quinolyl)-2,4-dimethyl-pent-4-enamide] returned a melting point of 125 to 127 °C. Further, the inhibition of growth at 200 ppm in data set [1] is at least 80%. Further, the inhibition of growth at 200 ppm in data set [2] is at least 80%. In data set [3], the inhibition of growth at 200 ppm is at least 80%. The inhibition of growth at 200 ppm in data set [4] was at least 80%. Further, the inhibition of growth at 200 ppm in data set [5] was at least 80%. Moreover, in data set [6], the inhibition of growth at 20 ppm is at least 80%.

Regarding `C[C@](Cc1ccccc1)(CC(F)(F)F)C(=O)Nc1cnc2c(F)cccc2c1` (single isomer, unassigned) [Compound F-23], the inhibition of growth at 200 ppm in data set [1], in data set [2], in data set [3], in data set [4] and in data set [5] was at least 80% throughout. Also, the pest or weed control at 200 ppm in data set [7] is at least 80%. Moreover, the inhibition of growth at 20 ppm in data set [6] is at least 80%.

As to `Cc1c(NC(=O)C(C)(Cc2ccccc2)CC(F)(F)F)cnc2c(Cl)cccc12` (stereo not drawn) [Compound E-15, 2-benzyl-N-(8-chloro-4-methyl-3-quinolyl)-4,4,4-trifluoro-2-methyl-butanamide], the melting point fell in the range of 73 to 75 °C. In addition, in data set [1], the inhibition of growth at 200 ppm was at least 80%. Besides, the inhibition of growth at 200 ppm in data set [2] was at least 80%. Also, the inhibition of growth at 200 ppm in data set [3] was at least 80%. In addition, in data set [4], the inhibition of growth at 200 ppm was at least 80%. Also, in data set [5], the inhibition of growth at 200 ppm was at least 80%. Further, the inhibition of growth at 20 ppm in data set [6] is at least 80%.

With `CC(Cc1ccccc1)(CC(F)(F)Cl)C(=O)Nc1cnc2c(F)cccc2c1` (stereo not drawn) [Compound E-56, 2-benzyl-4-chloro-4,4-difluoro-N-(8-fluoro-3-quinolyl)-2-methyl-butanamide], the inhibition of growth at 200 ppm in data set [1], in data set [2], in data set [3], in data set [4] and in data set [5] was at least 80% each time. For the same compound, the pest or weed control at 200 ppm in data set [7] was at least 80%. Further, the inhibition of growth at 20 ppm in data set [6] was at least 80%.

On to `Cc1c(NC(=O)[C@](C)(Cc2ccccc2)CC(C)C)cnc2c(F)cccc12` [Compound F-3, (2S)-2-benzyl-N-(8-fluoro-4-methyl-3-quinolyl)-2,4-dimethyl-pentanamide], for which the inhibition of growth at 200 ppm in data set [1], in data set [2], in data set [3], in data set [4] and in data set [5] was at least 80% throughout. For the same compound, the inhibition of growth at 20 ppm in data set [6] is at least 80%.

Regarding `C[C@](Cc1ccccc1)(CC(F)(F)F)C(=O)Nc1cnc2c(F)c(F)ccc2c1` [Compound F-15, (2S)-2-benzyl-N-(7,8-difluoro-3-quinolyl)-4,4,4-trifluoro-2-methyl-butanamide], the inhibition of growth at 200 ppm in data set [1], in data set [2], in data set [3], in data set [4] and in data set [5] was at least 80% throughout. Also, the inhibition of growth at 20 ppm in data set [6] is at least 80%.

Turning to `C=C(C)C[C@@](C)(Cc1ccccc1)C(=O)Nc1cnc2c(F)cccc2c1C` [Compound F-5, (2S)-2-benzyl-N-(8-fluoro-4-methyl-3-quinolyl)-2,4-dimethyl-pent-4-enamide], the inhibition of growth at 200 ppm in data set [1], in data set [2], in data set [3], in data set [4] and in data set [5] was at least 80% each time. In addition, the inhibition of growth at 20 ppm in data set [6] is at least 80%.

With `Cc1c(NC(=O)C(C)(Cc2ccccc2)CC(C)C)cnc2c(Cl)cccc12` (stereo not drawn) [Compound E-14, 2-benzyl-N-(8-chloro-4-methyl-3-quinolyl)-2,4-dimethyl-pentanamide], the melting point lay within 124 to 126 °C. Besides, the inhibition of growth at 200 ppm in data set [1] is at least 80%. Further, in data set [2], the inhibition of growth at 200 ppm is at least 80%. Also, in data set [3], the inhibition of growth at 200 ppm was at least 80%. In data set [5], the inhibition of growth at 200 ppm is at least 80%. Moreover, in data set [6], the inhibition of growth at 20 ppm was at least 80%.

Take `Cc1nc2c(F)cccc2cc1NC(=O)C(C)(Cc1ccc(F)cc1)CC(F)(F)F` (stereo not drawn) [Compound E-16, 4,4,4-trifluoro-N-(8-fluoro-2-methyl-3-quinolyl)-2-[(4-fluorophenyl)methyl]-2-methyl-butanamide]: the inhibition of growth at 200 ppm in data set [1], in data set [2], in data set [3] and in data set [5] was at least 80% throughout. The inhibition of growth at 20 ppm in data set [6] was at least 80%.

`O=C(Nc1cnc2c(F)cccc2c1)C(Cc1ccccc1)CC(F)(F)Cl` (stereo not drawn) [Compound E-58, 2-benzyl-4-chloro-4,4-difluoro-N-(8-fluoro-3-quinolyl)butanamide] had a melting point of 65 to 70 °C. In data set [1], the inhibition of growth at 200 ppm is at least 80%. The inhibition of growth at 200 ppm in data set [2] is at least 80%. Further, the pest or weed control at 200 ppm in data set [7] was at least 80%. Also, the inhibition of growth at 200 ppm in data set [3] was at least 80%. The inhibition of growth at 200 ppm in data set [4] was at least 80%. The inhibition of growth at 200 ppm in data set [5] was at least 80%.

Regarding `CC(Cc1cccc(F)c1)(CC(F)(F)F)C(=O)Nc1cnc2c(F)cccc2c1` (stereo not drawn) [Compound E-22, 4,4,4-trifluoro-2-[(3-fluorophenyl)methyl]-N-(8-fluoro-3-quinolyl)-2-methyl-butanamide], the inhibition of growth at 200 ppm in data set [1], in data set [2], in data set [3], in data set [4] and in data set [5] was at least 80% in each case. For the same compound, the inhibition of growth at 20 ppm in data set [6] was at least 80%.

As for `Cc1nc2c(F)cccc2cc1NC(=O)[C@](C)(Cc1ccccc1)CC(C)C` [Compound F-7, (2S)-2-benzyl-N-(8-fluoro-2-methyl-3-quinolyl)-2,4-dimethyl-pentanamide], the inhibition of growth at 200 ppm in data set [1], in data set [2], in data set [3], in data set [4] and in data set [5] was at least 80% throughout. Further, the pest or weed control at 200 ppm in data set [7] is at least 80%. In addition, the inhibition of growth at 20 ppm in data set [6] is at least 80%.

As to `Cc1nc2c(F)cccc2cc1NC(=O)[C@@](C)(Cc1ccccc1)CC(C)C` [Compound F-8, (2R)-2-benzyl-N-(8-fluoro-2-methyl-3-quinolyl)-2,4-dimethyl-pentanamide], the inhibition of growth at 200 ppm in data set [1], in data set [2], in data set [3], in data set [4] and in data set [5] was at least 80% throughout. For the same compound, the pest or weed control at 200 ppm in data set [7] was at least 80%. In addition, the inhibition of growth at 20 ppm in data set [6] is at least 80%.

On to `CC(Cc1ccccc1)(CC(F)(F)F)C(=O)Nc1cnc2ccccc2c1` (stereo not drawn) [Compound E-81, 2-benzyl-4,4,4-trifluoro-2-methyl-N-(3-quinolyl)butanamide], for which the inhibition of growth at 200 ppm in data set [1], in data set [2], in data set [3] and in data set [5] was at least 80% in each case. Also, the pest or weed control at 200 ppm in data set [7] was at least 80%. Moreover, the inhibition of growth at 20 ppm in data set [6] was at least 80%.

The values above are taken from US10952436B2, “Microbiocidal quinoline (thio)carboxamide derivatives” (SYNGENTA PARTICIPATIONS AG, priority 2017, dated 2021).
